# Where “and” joins values, the source holds several entries; their conditions need not be identical. Identical values can stand only once. Like-named read-outs stand apart in the source and are kept apart here.
# Assays:
# [1] = system: early life stage zebrafish (Danio rerio) embryos; experiment: Developmental toxicity morphology screen, sealed rotating vial exposure; type: in vivo; set-up: bmd, MO24 / bmd, MORT / bmd, ANY_ / bmd, AXIS / bmd, CRAN / bmd, EDEM / bmd, LTRK / bmd, MUSC / bmdL, ANY_ / bmdU, ANY_ / bmdL, AXIS / bmdU, AXIS / bmdL, CRAN / bmdU, CRAN / bmdL, EDEM / bmdU, EDEM / bmdL, LTRK / bmdU, LTRK / bmdL, MO24 / bmdU, MO24 / bmdL, MORT / bmdU, MORT: unit not given here; conditions: for morphological effects (BMC50 for any morphological endpoint): 0-50 μM, result in words
# Outline: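 Bleached 6 hpf embryos, eight per sealed glass vial in 2 mL EM, were dosed from a 200x DMSO stock and rotated end-over-end overnight at 28 °C, then moved to chemical-free EM at 24 hpf (32 embryos per treatment). Blinded binary scoring at 120 hpf was pooled as "Any effect". BMC50 is on nominal concentrations.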
# [2] = system: zebrafish larvae, 120 hpf; experiment: Larval photomotor response (LPR) assay after vial exposure; type: in vivo, Danio rerio; conditions: LPR
# Outline: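 Embryos bleached at 6 hpf, exposed in sealed glass vials (8 per vial, DMSO stock at 200x) with rotation overnight at 28 °C, then singulated into chemical-free medium and kept dark at 28 °C. Movement tracked minutes 6–24 at 120 hpf, 6 s bins log-normalized to AUC; LEL per light/dark period from first cycle; nominal water concentrations, dead/malformed larvae excluded.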
# lung tissue = conditions: compared to naphthalene and monomethylated derivatives, ref Honda et al., 1990, cited from earlier work
# [3] = system: early life stage zebrafish; set-up: method as in Geier et al., 2018a; conditions: 96-well plate format; ref Geier et al., 2018a; cited from earlier work
# [4] = Body burden measurement (GC-MS/MS) and concentration uptake ratio, vial exposure; type: in vivo, Danio rerio; conditions: zebrafish (Danio rerio), whole embryos (32 pooled, ethyl acetate extract), other: waterborne exposure of embryos in sealed vials, 20 μM exposure, 32 pooled embryos, 0.5 mL extract, single replicates, read-out: measured concentration in embryo extract
# Experimental: (§1) Body burden was measured for exposure to five chemicals at two timepoints: 24 and 48 hpf. […] The exposure concentration was chosen as it was the maximum possible concentration that ensured enough viable animals for collection at 48 hpf and allowed direct comparison of chemical uptake at the same exposure concentration.
# (§2) Chemicals were exposed at 20 μM following the exposure procedure detailed in section 1.3, 24 vials per chemical. At 24 hpf, embryos were pooled in groups of 32 embryos (combining embryos from 4 vials) into 1.5 mL polypropylene RINO-safe lock tubes (n = 3 per chemical treatment, n = 3 per control). Tubes were briefly placed on ice to reduce embryo movement (<1 min); the remaining medium was removed; the tube was then flash frozen in liquid nitrogen and stored at −20 °C until extraction. Embryos in the remaining vials were plated as previously described in section 1.3 until collection at 48 hpf following the same procedure as 24 hpf collections (n = 3 per chemical treatment, n = 1 control).
# (§3) Tissue extraction was performed as previously reported ([Rude et al., 2025]). Each sample was spiked with 25 μL internal standard in ethyl acetate and 100 μL of 1 mm glass beads (Next Advance, Troy, NY United States) were added to the RINO-safe lock tubes containing thawed tissue samples and left on ice for 10 min 250 mg of Na2SO4 and 200 μL of ethyl acetate were added to each tube and vortexed. Tubes were homogenized at speed 8 for 6 min in a Bullet Blender (Next Advance, Troy, NY, United States). 300 μL of ethyl acetate was added to each tube and the homogenization step was repeated until no pieces of non-homogenized fish tissue remained. Samples were then centrifuged for 10 min at 4 °C, 1600g. Sample supernatant (0.5 mL) was collected into amber vials and stored at 4 °C until chemical analysis.
# (§4) Samples were analyzed for quantitation and identification of 161 PAHs. The method was performed with an Agilent 7890 gas chromatograph (GC), with a 7000C triple quadrupole mass spectrometer (MS/MS) using an Agilent J&W PAH select (30 m × 250 μm × 0.15 μm GC column). Calibration for each analyte utilized at least a 4-point (range: 4–7, median 6 points, n = 161) curve with R^2 ≥ 0.99. Specific instrument conditions were modified from [Anderson et al. (2015)] and are detailed in Table S3. GC–MS/MS data was analyzed using MassHunter Quantitative Analysis v.B.06.00 SP1 build 6.0.388.1 software (Agilent Corp. Wilmington,DE) ([Anderson et al., 2015]). Dynamic muti-reaction monitoring mode was used during analyses, and all PAHs were identified using analytical standards obtained from multiple sources (Table S1). Collison energies were optimized for each individual unsubstituted PAH, alkylation series (C1, C2, etc.), and when possible, specific alkylation group (i.e. methyl, ethyl, etc.).
# (§5) Body burden concentrations based on average embryo wet weight at each timepoint were determined by the equation below. Total measured chemical was calculated from ng/mL concentrations times sample volume (0.5 mL). Bodyburdennmol/mgbw=total measured chemicalnmol/number of fish32×average body weightmg
# (§6) Average body weights at 24 hpf and 48 hpf were assumed to be 0.31 mg and 0.26 mg, respectively as determined previously ([Rericha et al., 2024]). Statistical analysis to compare time points within chemicals was performed using a two-sided Student’s t-test (p-value ≤ 0.05). An ANOVA with a follow-up Dunn’s test was used to compare body burden between chemicals at 24 hpf (p-value ≤ 0.05). Body burden concentrations at 24 hpf were compared to the estimated percent effect of each measured chemical at the exposure concentration used for body burden analysis (20 μM). These estimates were made using the fitted concentration-response curves previously described in section 2.3.2.2.
# (§7) Concentration uptake ratios between vial exposures and 96-well plate exposures were compared using a two-sided Student’s t-test, p-values ≤ 0.05 were considered significant. […]
# zebrafish embryos [5] = experiment: as above; type: in vivo, Danio rerio; conditions: for measured concentration in embryo extract: 20 μM exposure, 32 pooled embryos, 0.5 mL extract, single replicates; for nmol/embryo per nmol available / nmol/embryo: Current study, vial, 20 μM; for nmol/embryo: single chemical
# Experimental: as §1, §2, §3, §4, §5, §6, §7
# zebrafish embryos [6] = conditions: 96-well, cited from earlier work
# [7] = period dark, round 1, conc 3.125
# [8] = period dark, round 1, conc 6.25
# [9] = period dark, round 1, conc 12.5
# [10] = period light, round 1, conc 3.125
# [11] = period light, round 1, conc 6.25
# [12] = period light, round 1, conc 12.5
# [13] = 24 hpf, 2.6 μM, mixture, ref Rude et al 2025
# [14] = 48 hpf, 2.6 μM, mixture, ref Rude et al 2025
structure (smiles),measurement,setting,value
"CC(C)c1ccc2cc(C(C)C)ccc2c1 [2,6-diisopropylnaphthalene]",morphological effects (BMC50 for any morphological endpoint),[1],lack of activity
same,fold_change,[2]; [7],-0.1214
same,fold_change,[2]; [8],0.07359
same,fold_change,[2]; [9],-0.001373
same,fold_change,"[2]; period dark, round 1, conc 25",-0.09025
same,fold_change,"[2]; period dark, round 1, conc 50",-0.07941
same,fold_change,[2]; [10],-0.5097
same,fold_change,[2]; [11],-1.08
same,fold_change,[2]; [12],-0.05494
same,fold_change,"[2]; period light, round 1, conc 25",-0.2588
same,fold_change,"[2]; period light, round 1, conc 50",-0.8125
same,toxicity / lung tissue damage in mice,lung tissue,minimal damage to lung tissue
same,toxicity / lung tissue damage in mice,"lung tissue; listed as 2,6-diidopropylnaphthalene",minimally active
"Cc1ccc2cc(C)ccc2c1 [2,6-dimethylnaphthalene]",LPR effects,[3],"all but 2,6-dimethylnaphthalene caused LPR effects"
same,fold_change,[2]; [7],-0.2769
same,fold_change,[2]; [8],-0.4387
same,fold_change,[2]; [9],-0.1031
same,fold_change,"[2]; period dark, round 1, conc 25",-0.6771
same,fold_change,"[2]; period dark, round 1, conc 50",-0.3061
same,fold_change,[2]; [10],-0.2359
same,fold_change,[2]; [11],-0.1972
same,fold_change,[2]; [12],0.2009
same,fold_change,"[2]; period light, round 1, conc 25",-0.2222
same,fold_change,"[2]; period light, round 1, conc 50",-0.2493
CC(C)c1ccc2ccccc2c1 [2-isopropylnaphthalene],BMC50 MO24 (mortality at 24 hpf),"[1]; Fig. 2, nominal concentration",29.9 µM
same,BMC50 MORT (mortality at 120 hpf),"[1]; Fig. 2, nominal concentration",25.2 µM
same,BMC50 Any effect,"[1]; Fig. 2 heatmap, nominal concentration, exposure 6-24 hpf in vials, summary of all endpoints",19.8 µM
same,any effect BMD50,[1]; SI-T5,19.85 µM
same,"bmd, MO24","[1]; endpoint MO24, benchmark dose",29.9264
same,"bmdL, MO24","[1]; endpoint MO24, lower limit of benchmark dose",27.6751
same,"bmdU, MO24","[1]; endpoint MO24, upper limit of benchmark dose",32.9501
same,"bmd, MORT","[1]; endpoint MORT, benchmark dose",25.1507
same,"bmdL, MORT","[1]; endpoint MORT, lower limit of benchmark dose",24.3232
same,"bmdU, MORT","[1]; endpoint MORT, upper limit of benchmark dose",26.3204
same,"bmd, ANY_","[1]; morphology endpoint ANY_, benchmark dose",19.8483
same,"bmdL, ANY_","[1]; morphology endpoint ANY_, lower limit of benchmark dose",18.4734
same,"bmdU, ANY_","[1]; morphology endpoint ANY_, upper limit of benchmark dose",21.3892
same,fold_change,[2]; [7],-0.04413
same,fold_change,[2]; [8],-0.6849
same,fold_change,[2]; [9],-1.554
same,fold_change,"[2]; period dark, round 2, conc 12.8",-0.9379
same,fold_change,"[2]; period dark, round 2, conc 16",-1.368
same,fold_change,"[2]; period dark, round 2, conc 20",-1.899
same,fold_change,[2]; [10],0.2872
same,fold_change,[2]; [11],0.3099
same,fold_change,[2]; [12],1.277
same,fold_change,"[2]; period light, round 2, conc 12.8",-0.1327
same,fold_change,"[2]; period light, round 2, conc 16",-0.2493
same,fold_change,"[2]; period light, round 2, conc 20",0.1913
same,toxicity / lung tissue damage in mice,lung tissue,minimally active
c1ccc2ccccc2c1 [naphthalene],morphological effects (BMC50 for any morphological endpoint),[1],no morphological BMC50 values
same,"concentration at 24 hpf, 20 μM",[4]; 24 hpf,6500 ng/mL
same,"concentration at 48 hpf, 20 μM",[4]; 48 hpf,75.6 ng/mL
same,measured concentration in embryo extract,zebrafish embryos [5]; 24 hpf,4400 ng/mL and 5130 ng/mL
same,measured concentration in embryo extract,zebrafish embryos [5]; 48 hpf,66.9 ng/mL and 62 ng/mL
same,nmol/embryo per nmol available,zebrafish embryos [5]; 24 hpf,0.1585 and 0.1073 and 0.1251
same,nmol/embryo,zebrafish embryos [5]; 24 hpf,0.7924 nmol/embryo and 0.5364 nmol/embryo and 0.6254 nmol/embryo
same,nmol/embryo per nmol available,zebrafish embryos [5]; 48 hpf,0.001843 and 0.001631 and 0.001512
same,nmol/embryo,zebrafish embryos [5]; 48 hpf,0.009216 nmol/embryo and 0.008156 nmol/embryo and 0.007558 nmol/embryo
same,mean nmol/embryo per nmol available,zebrafish embryos [6]; [13],0.004595
same,nmol/embryo,zebrafish embryos [6]; [13],0.001159 nmol/embryo and 0.001224 nmol/embryo and 0.001235 nmol/embryo
same,nmol/embryo per nmol available,zebrafish embryos [6]; [13],0.00446 and 0.00471 and 0.004751
same,nmol/embryo,zebrafish embryos [6]; [14],0.0007856 nmol/embryo and 0.00092 nmol/embryo and 0.0008366 nmol/embryo and 0.0008192 nmol/embryo
same,nmol/embryo per nmol available,zebrafish embryos [6]; [14],0.003022 and 0.003538 and 0.003218 and 0.003151
same,nmol/embryo,"zebrafish embryos [6]; 48 hpf, 5.39 μM, single chemical, ref Geier et al 2018",0.0007734 nmol/embryo and 0.0007422 nmol/embryo and 0.000789 nmol/embryo
same,nmol/embryo per nmol available,"zebrafish embryos [6]; 48 hpf, 5.39 μM, ref Geier et al 2018",0.001435 and 0.001377 and 0.001464
same,nmol/embryo,"zebrafish embryos [6]; 48 hpf, 11.6 μM, single chemical, ref Geier et al 2018",0.001794 nmol/embryo and 0.001746 nmol/embryo and 0.001648 nmol/embryo
same,nmol/embryo per nmol available,"zebrafish embryos [6]; 48 hpf, 11.6 μM, ref Geier et al 2018",0.001547 and 0.001505 and 0.001421
same,nmol/embryo,"zebrafish embryos [6]; 48 hpf, 25 μM, single chemical, ref Geier et al 2018",0.002233 nmol/embryo and 0.002584 nmol/embryo and 0.002516 nmol/embryo
same,nmol/embryo per nmol available,"zebrafish embryos [6]; 48 hpf, 25 μM, ref Geier et al 2018",0.0008933 and 0.001034 and 0.001006

# From article PMC12560828, “Chemical structure drives developmental toxicity of alkyl-substituted naphthalenes in zebrafish” (Environment international, 2025)
